Square brackets hold non-standard residues; d marks the D form. Peptide text beside a SMILES is read from it. Arg(Me) = CNC(=N)NCCC[C@H](N)C(=O)O; Dap(CONH2) = NC(=O)NC[C@H](N)C(=O)O; Ala(cPr) = N[C@@H](CC1CC1)C(=O)O; Hyp = O=C(O)[C@@H]1C[C@@H](O)CN1; Cit = NC(=O)NCCC[C@H](N)C(=O)O; NMeS = CN[C@@H](CO)C(=O)O; Dap = NC[C@H](N)C(=O)O; azaGly = NNC(=O)O
Target: T1, hOT7T175 (Homo sapiens, UniProt Q969F8)
T1 construct: expressed in transfected cells
Assay: Assay for intracellular Ca ion level-increasing activity using FLIPR
Assay type: cell-based
Conditions: hOT7T175/CHO cells, relative to Metastin (1-54)
In short: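 CHO/dhfr− cells stably transfected with hOT7T175, selected for high metastin response, loaded with Fluo3-AM for 1 h at 37 °C in HANKS/HBSS (pH 7.4) with probenecid. Peptides were diluted from 1×10^−3 M DMSO stock into HANKS/HBSS with 2.5 mM probenecid, 0.2% BSA, 0.1% CHAPS; intracellular Ca rise read by FLIPR.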

T1 sequence (Q969F8 whole entry L364H): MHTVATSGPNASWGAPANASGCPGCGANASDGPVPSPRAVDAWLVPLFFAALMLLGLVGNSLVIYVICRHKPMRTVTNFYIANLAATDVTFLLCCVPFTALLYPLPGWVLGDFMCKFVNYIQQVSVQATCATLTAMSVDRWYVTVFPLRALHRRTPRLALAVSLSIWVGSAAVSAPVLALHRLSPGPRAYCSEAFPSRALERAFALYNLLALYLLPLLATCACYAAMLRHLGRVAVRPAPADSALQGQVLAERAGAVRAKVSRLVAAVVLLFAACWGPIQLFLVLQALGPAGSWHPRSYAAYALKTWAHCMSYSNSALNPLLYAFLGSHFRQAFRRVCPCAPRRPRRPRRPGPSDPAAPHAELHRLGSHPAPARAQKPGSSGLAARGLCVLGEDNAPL

| Specific Activity: intracellular Ca ion level-increasing activity [specific activity to Metastin (1-54)] | Structure (SMILES) |
| --- | --- |
| 0.8 | CNC(=N)NCCC[C@H](NC(=O)[C@H](CC(C)C)NC(=O)NNC(=O)[C@H](Cc1ccccc1)NC(=O)[C@@H](NC(=O)[C@H](CNC(N)=O)NC(=O)[C@@H]1C[C@@H](O)CN1C(=O)[C@@H](Cc1ccc(O)cc1)NC(C)=O)[C@@H](C)O)C(=O)N[C@@H](Cc1c[nH]c2ccccc12)C(N)=O [Compound No. 800, Ac-D-Tyr-Hyp-Alb-Thr-Phe-AzaGly-Leu-Arg(Me)-Trp-NH2] (Ac-[dY][Hyp][Dap(CONH2)]TF[azaGly]L[Arg(Me)]W-NH2) |
| 11.1 | CNC(=N)NCCC[C@H](NC(=O)[C@H](CC(C)C)NC(=O)NNC(=O)[C@H](Cc1ccccc1)NC(=O)c1ccc(CN(Cc2ccccn2)Cc2ccccn2)cc1)C(=O)N[C@@H](Cc1c[nH]c2ccccc12)C(N)=O [Compound No. 801, 4-[Bis-(2-Pyridylmethyl)aminomethyl]benzoyl-Phe-AzaGly-Leu-Arg(Me)-Trp-NH2] |
| 1.0 | CNC(=N)NCCC[C@H](NC(=O)[C@H](CC(C)C)NC(=O)NNC(=O)[C@H](Cc1ccccc1)NC(=O)[C@H](CO)N(C)C(=O)[C@H](CC(N)=O)NC(=O)[C@@H]1C[C@@H](O)CN1C(=O)[C@@H](Cc1ccc(O)cc1)NC(C)=O)C(=O)N[C@@H](Cc1c[nH]c2ccccc12)C(N)=O [Compound No. 809, Ac-D-Tyr-Hyp-Asn-NMeSer-Phe-AzaGly-Leu-Arg(Me)-Trp-NH2] (Ac-[dY][Hyp]N[NMeS]F[azaGly]L[Arg(Me)]W-NH2) |
| 1.5 | CNC(=N)NCCC[C@H](NC(=O)[C@H](CC(C)C)NC(=O)NNC(=O)[C@H](Cc1ccccc1)NC(=O)[C@@H]1C[C@@H](O)CN1C(=O)[C@H](CC(N)=O)NC(=O)[C@@H]1C[C@@H](O)CN1C(=O)[C@@H](Cc1ccc(O)cc1)NC(C)=O)C(=O)N[C@@H](Cc1c[nH]c2ccccc12)C(N)=O [Compound No. 810, Ac-D-Tyr-Hyp-Asn-Hyp-Phe-AzaGly-Leu-Arg(Me)-Trp-NH2] (Ac-[dY][Hyp]N[Hyp]F[azaGly]L[Arg(Me)]W-NH2) |
| 0.5 | CNC(=N)NCCC[C@H](NC(=O)[C@H](CC(C)C)NC(=O)NNC(=O)[C@H](Cc1ccccc1)NC(=O)CNC(=O)[C@H](CC(N)=O)NC(=O)[C@@H]1C[C@@H](O)CN1C(=O)[C@@H](Cc1ccc(O)cc1)NC(C)=O)C(=O)N[C@@H](Cc1c[nH]c2ccccc12)C(N)=O [Compound No. 813, Ac-D-Tyr-Hyp-Asn-Gly-Phe-AzaGly-Leu-Arg(Me)-Trp-NH2] (Ac-[dY][Hyp]NGF[azaGly]L[Arg(Me)]W-NH2) |
| 0.5 | CNC(=N)NCCC[C@H](NC(=O)[C@H](CC(C)C)NC(=O)NNC(=O)[C@H](Cc1ccccc1)NC(=O)[C@H](C)NC(=O)[C@H](CC(N)=O)NC(=O)[C@@H]1C[C@@H](O)CN1C(=O)[C@@H](Cc1ccc(O)cc1)NC(C)=O)C(=O)N[C@@H](Cc1c[nH]c2ccccc12)C(N)=O [Compound No. 814, Ac-D-Tyr-Hyp-Asn-Ala-Phe-AzaGly-Leu-Arg(Me)-Trp-NH2] (Ac-[dY][Hyp]NAF[azaGly]L[Arg(Me)]W-NH2) |
| 0.5 | CNC(=N)NCCC[C@H](NC(=O)[C@H](CC(C)C)NC(=O)NNC(=O)[C@H](Cc1ccccc1)NC(=O)[C@@H](C)NC(=O)[C@H](CC(N)=O)NC(=O)[C@@H]1C[C@@H](O)CN1C(=O)[C@@H](Cc1ccc(O)cc1)NC(C)=O)C(=O)N[C@@H](Cc1c[nH]c2ccccc12)C(N)=O [Compound No. 815, Ac-D-Tyr-Hyp-Asn-D-Ala-Phe-AzaGly-Leu-Arg(Me)-Trp-NH2] (Ac-[dY][Hyp]N[dA]F[azaGly]L[Arg(Me)]W-NH2) |
| 1.1 | CNC(=N)NCCC[C@H](NC(=O)[C@H](CC(C)C)NC(=O)NNC(=O)[C@H](Cc1ccccc1)NC(=O)[C@@H](NC(=O)[C@H](Cc1cnc[nH]1)NC(=O)[C@@H]1C[C@@H](O)CN1C(=O)[C@@H](Cc1ccc(O)cc1)NC(C)=O)[C@@H](C)O)C(=O)N[C@@H](Cc1c[nH]c2ccccc12)C(N)=O [Compound No. 816, Ac-D-Tyr-Hyp-His-Thr-Phe-AzaGly-Leu-Arg(Me)-Trp-NH2] (Ac-[dY][Hyp]HTF[azaGly]L[Arg(Me)]W-NH2) |
| 0.8 | CNC(=N)NCCC[C@H](NC(=O)[C@H](CC(C)C)NC(=O)NNC(=O)[C@H](Cc1ccccc1)NC(=O)[C@@H](NC(=O)[C@H](CCC(N)=O)NC(=O)[C@@H]1C[C@@H](O)CN1C(=O)[C@@H](Cc1ccc(O)cc1)NC(C)=O)[C@@H](C)O)C(=O)N[C@@H](Cc1c[nH]c2ccccc12)C(N)=O [Compound No. 843, Ac-D-Tyr-Hyp-Gln-Thr-Phe-AzaGly-Leu-Arg(Me)-Trp-NH2] (Ac-[dY][Hyp]QTF[azaGly]L[Arg(Me)]W-NH2) |
| 0.9 | CNC(=N)NCCC[C@H](NC(=O)[C@H](CC(C)C)NC(=O)NNC(=O)[C@H](Cc1ccccc1)NC(=O)[C@@H](NC(=O)[C@@H](CC(N)=O)NC(=O)[C@@H]1C[C@@H](O)CN1C(=O)[C@@H](Cc1ccc(O)cc1)NC(C)=O)[C@@H](C)O)C(=O)N[C@@H](Cc1c[nH]c2ccccc12)C(N)=O [Compound No. 844, Ac-D-Tyr-Hyp-D-Asn-Thr-Phe-AzaGly-Leu-Arg(Me)-Trp-NH2] (Ac-[dY][Hyp][dN]TF[azaGly]L[Arg(Me)]W-NH2) |
| 1.0 | CNC(=N)NCCC[C@H](NC(=O)[C@H](CC(C)C)NC(=O)NNC(=O)[C@H](Cc1ccccc1)NC(=O)[C@@H](NC(=O)[C@H](CCCNC(N)=O)NC(=O)[C@@H]1C[C@@H](O)CN1C(=O)[C@@H](Cc1ccc(O)cc1)NC(C)=O)[C@@H](C)O)C(=O)N[C@@H](Cc1c[nH]c2ccccc12)C(N)=O [Compound No. 845, Ac-D-Tyr-Hyp-Cit-Thr-Phe-AzaGly-Leu-Arg(Me)-Trp-NH2] (Ac-[dY][Hyp][Cit]TF[azaGly]L[Arg(Me)]W-NH2) |
| 0.9 | CNC(=N)NCCC[C@H](NC(=O)[C@H](CC(C)C)NC(=O)NNC(=O)[C@H](Cc1ccccc1)NC(=O)[C@H](NC(=O)[C@H](CC(N)=O)NC(=O)[C@@H]1C[C@@H](O)CN1C(=O)[C@@H](Cc1ccc(O)cc1)NC(C)=O)[C@H](C)O)C(=O)N[C@@H](Cc1c[nH]c2ccccc12)C(N)=O [Compound No. 846, Ac-D-Tyr-Hyp-Asn-D-Thr-Phe-AzaGly-Leu-Arg(Me)-Trp-NH2] (Ac-[dY][Hyp]N[dT]F[azaGly]L[Arg(Me)]W-NH2) |
| 0.6 | CNC(=N)NCCC[C@H](NC(=O)[C@H](CC1CC1)NC(=O)NNC(=O)[C@H](Cc1ccccc1)NC(=O)[C@@H](NC(=O)[C@H](CC(N)=O)NC(=O)[C@@H]1C[C@@H](O)CN1C(=O)[C@@H](Cc1ccc(O)cc1)NC(C)=O)[C@@H](C)O)C(=O)N[C@@H](Cc1c[nH]c2ccccc12)C(N)=O [Compound No. 856, Ac-D-Tyr-Hyp-Asn-Thr-Phe-AzaGly-Ala(cPr)-Arg(Me)-Trp-NH2] (Ac-[dY][Hyp]NTF[azaGly][Ala(cPr)][Arg(Me)]W-NH2) |
| 1.4 | CNC(=N)NCCC[C@H](NC(=O)[C@H](CC(C)C)NC(=O)NNC(=O)[C@H](Cc1ccccc1)NC(=O)[C@@H](NC(=O)[C@H](CCCNC(=N)N)NC(=O)[C@@H]1C[C@@H](O)CN1C(=O)[C@@H](Cc1ccc(O)cc1)NC(C)=O)[C@@H](C)O)C(=O)N[C@@H](Cc1c[nH]c2ccccc12)C(N)=O [Compound No. 861, Ac-D-Tyr-Hyp-Arg-Thr-Phe-AzaGly-Leu-Arg(Me)-Trp-NH2] (Ac-[dY][Hyp]RTF[azaGly]L[Arg(Me)]W-NH2) |
| 0.7 | CNC(=N)NCCC[C@H](NC(=O)[C@H](CC(C)C)NC(=O)NNC(=O)[C@H](Cc1ccccc1)NC(=O)[C@@H](NC(=O)CNC(=O)[C@@H]1C[C@@H](O)CN1C(=O)[C@@H](Cc1ccc(O)cc1)NC(C)=O)[C@@H](C)O)C(=O)N[C@@H](Cc1c[nH]c2ccccc12)C(N)=O [Compound No. 862, Ac-D-Tyr-Hyp-Gly-Thr-Phe-AzaGly-Leu-Arg(Me)-Trp-NH2] (Ac-[dY][Hyp]GTF[azaGly]L[Arg(Me)]W-NH2) |
| 0.9 | CNC(=N)NCCC[C@H](NC(=O)[C@H](CC(C)C)NC(=O)NNC(=O)[C@H](Cc1ccccc1)NC(=O)[C@@H](NC(=O)[C@H](CN)NC(=O)[C@@H]1C[C@@H](O)CN1C(=O)[C@@H](Cc1ccc(O)cc1)NC(C)=O)[C@@H](C)O)C(=O)N[C@@H](Cc1c[nH]c2ccccc12)C(N)=O [Compound No. 863, Ac-D-Tyr-Hyp-Dap-Thr-Phe-AzaGly-Leu-Arg(Me)-Trp-NH2] (Ac-[dY][Hyp][Dap]TF[azaGly]L[Arg(Me)]W-NH2) |

| Structure (SMILES) | Specific Activity: intracellular Ca ion level-increasing activity [specific activity to Metastin (1-54)] |
| --- | --- |
| CC(=O)N[C@H](Cc1ccc(O)cc1)C(=O)N1C[C@H](O)C[C@H]1C(=O)N[C@@H](CC(N)=O)C(=O)N[C@H](C(=O)N[C@@H](Cc1ccccc1)C(=O)NNC(=O)N[C@@H](CC(C)C)C(=O)N[C@@H](CCCNC(=N)N)C(=O)N[C@@H](Cc1c[nH]c2ccccc12)C(N)=O)[C@@H](C)O [Compound No. 797, Ac-D-Tyr-Hyp-Asn-Thr-Phe-AzaGly-Leu-Arg-Trp-NH2] (Ac-[dY][Hyp]NTF[azaGly]LRW-NH2) | 1.4 |
| CNC(=N)NCCC[C@H](NC(=O)[C@H](CC(C)C)NC(=O)NNC(=O)[C@H](Cc1ccccc1)NC(=O)c1ccc(NC(N)=O)cc1)C(=O)N[C@@H](Cc1c[nH]c2ccccc12)C(N)=O [Compound No. 860, 4-Ureidobenzoyl-Phe-AzaGly-Leu-Arg(Me)-Trp-NH2] | 1.3 |
